System: GBA mutant human fibroblasts GM008760
Test: Glucosylceramide lowering assay
Type: cell-based
Conditions: 10 μM test compound, 4 days culture, GlcCer (C16:0)/Cer (C16:0) molar ratio of test compound group relative to DMSO control group x100, smaller value = glucosylceramide lowering; for activity at 10 µM: Homo sapiens, Fibroblast, 96 h
Procedure: Glucosylceramide Lowering Assay
Using GBA mutant human fibroblasts containing mutated glucosylceramidase, the effect of test compounds on glucosylceramide reduction was evaluated.
GBA mutant human fibroblasts GM008760 (Coriel Institute) were seeded in a 96-well multiwell plate at a density of 5,000 cells/100 μL culture solution/well. GlutaMAX (Thermo Fishcer Scientific), penicillin-streptomycin, and Minimum Essential Media (Thermo Fishcer Scientific) supplemented with 15% fetal bovine serum were used as a culture solution. After culturing for 2 days, a 10 mM DMSO solution of the test compound diluted with the culture solution was added to a 96-well plate by 100 μL to adjust a final test compound concentration to 10 μM. After culturing the cells for 4 days in the presence of the test compound, the culture solution was removed, and the cells adhered to the 96-well plate were washed with a phosphate buffer (ThermoFisher Scientific, product number 14190-144). A solvent composed of 50% ethanol and 50% isopropanol was added to the 96-well plate by 100 μL, and the intracellular lipids were dissolved by pipetting. A solution prepared by dissolving N-Octadecanoyl-D35-psychosine (50 ng/mL, Matreya LLC Inc.) as an internal standard in 50% ethanol and 50% isopropanol was added to the sample in an equal volume, and 2.5 μL of the centrifuged supernatant was used as the test compound group.
In the same manner as above, a control group was prepared by using DMSO instead of the 10 mM DMSO solution of the test compound.
For the test compound group and the control group, molar concentrations of glucosylceramide [GlcCer (C16:0)] and ceramide [Cer (C16:0)] were quantified using Rapidfire-MS/MS (API-5000, Turbo-ESI, SRM), and the glucosylceramide lowering effect of the test compound group relative to the control group was evaluated by the following formula. (GlcCer/Cer of test compound group)/(GlcCer/Cer of control group)×100 wherein GlcCer/Cer is the ratio of the molar concentration of glucosylceramide to that of ceramide.
In this test, when the numerical value obtained by the above calculation formula is small, glucosylceramide is metabolized to ceramide by the test compound, or the synthesis of glucosylceramide from ceramide is inhibited by the test compound, that is, it can be said that the test compound has a glucosylceramide lowering effect.

Row | SMILES | activity at 10 µM | 10 μM GlcCer/Cer (% of control)
1 | CCCCO[C@H]1CC[C@H](NC(=O)c2cnn3c(C)cn(C)c(=O)c23)CC1 [Example 283, N-(trans-4-butoxycyclohexyl)-5,7-dimethyl-4-oxo-4,5-dihydropyrazolo[1,5-a]pyrazine-3-carboxamide] | 75% | –
2 | Cc1cn(C)c(=O)c2c(C(=O)NCc3noc(-c4ccc(Cl)cc4)n3)cnn12 [Example 286, N-((5-(4-chlorophenyl)-1,2,4-oxadiazol-3-yl)methyl)-5,7-dimethyl-4-oxo-4,5-dihydropyrazolo[1,5-a]pyrazine-3-carboxamide] | 67% | –
3 | Cc1cn(C)c(=O)c2c(C(=O)N3CCC(Oc4ccc(OC(F)(F)F)cc4)CC3)cn(C)c12 [Example 288, 1,5,7-trimethyl-3-((4-(4-(trifluoromethoxy)phenoxy)piperidin-1-yl)carbonyl)-1,5-dihydro-4H-pyrrolo[3,2-c]pyridin-4-one] | 27% | –
4 | Cn1cc(C(=O)Nc2ccc(N3CCOCC3)cc2)c2c(=O)n(CC#N)ccc21 [Example 292, 5-(cyanomethyl)-1-methyl-N-(4-(morpholin-4-yl)phenyl)-4-oxo-4,5-dihydro-1H-pyrrolo[3,2-c]pyridine-3-carboxamide] | 89% | –
5 | COc1ccccc1-n1ccc2c(c(C(=O)Nc3ccc(N4CCOCC4)cc3)cn2C)c1=O [Example 293, 5-(2-methoxyphenyl)-1-methyl-N-(4-(morpholin-4-yl)phenyl)-4-oxo-4,5-dihydro-1H-pyrrolo[3,2-c]pyridine-3-carboxamide] | 52% | –
6 | Cn1cc(C(=O)Nc2ccc(N3CCOCC3)cc2)c2c(=O)n(-c3ccccc3OCC(F)(F)F)ccc21 [Example 294, 1-methyl-N-(4-(morpholin-4-yl)phenyl)-4-oxo-5-(2-(2,2,2-trifluoroethoxy)phenyl)-4,5-dihydro-1H-pyrrolo[3,2-c]pyridine-3-carboxamide] | 36% | –
7 | COc1cc(F)ccc1-n1ccc2c(c(C(=O)Nc3ccc(N4CCOCC4)cc3)cn2C)c1=O [Example 295, 5-(4-fluoro-2-methoxyphenyl)-1-methyl-N-(4-(morpholin-4-yl)phenyl)-4-oxo-4,5-dihydro-1H-pyrrolo[3,2-c]pyridine-3-carboxamide] | 66% | –
8 | Cn1cc(C(=O)NC(C)(C)c2ccc(Cl)cc2)c2c(=O)n(CC#N)ccc21 [Example 296, N-(2-(4-chlorophenyl)propan-2-yl)-5-(cyanomethyl)-1-methyl-4-oxo-4,5-dihydro-1H-pyrrolo[3,2-c]pyridine-3-carboxamide] | 52% | –
9 | Cc1cn(C)c(=O)c2c(C(=O)N3CCC(Oc4ccc(OC(F)(F)F)cc4)CC3)cnn12 [Example 303, 5,7-dimethyl-3-((4-(4-(trifluoromethoxy)phenoxy)piperidin-1-yl)carbonyl)pyrazolo[1,5-a]pyrazin-4(5H)-one] | 60% | –
10 | Cc1cn(C)c(=O)c2c(C(=O)N3CC4CC4(c4ccc(Cl)cc4)C3)cnn12 (centres unmarked) [Example 304, 3-((1-(4-chlorophenyl)-3-azabicyclo[3.1.0]hex-3-yl)carbonyl)-5,7-dimethylpyrazolo[1,5-a]pyrazin-4(5H)-one] | 64% | –
11 | Cc1cn(C)c(=O)c2c(C(=O)N3CC4CC4(c4ccc(OC(F)(F)F)cc4)C3)cnn12 (centres unmarked) [Example 305, 5,7-dimethyl-3-((1-(4-(trifluoromethoxy)phenyl)-3-azabicyclo[3.1.0]hex-3-yl)carbonyl)pyrazolo[1,5-a]pyrazin-4(5H)-one] | – | 47 % of control
12 | Cc1cn(C)c(=O)c2c(C(=O)NC(C)(C)c3ccc(Cl)cc3)cnn12 [Example 306, N-(2-(4-chlorophenyl)propan-2-yl)-5,7-dimethyl-4-oxo-4,5-dihydropyrazolo[1,5-a]pyrazine-3-carboxamide] | 51% | –
13 | Cc1cn(C)c(=O)c2c(C(=O)N3CC4CC4(c4ccc(Cl)cc4)C3)cnn12 (centres unmarked) [Example 307, 3-((1-(4-chlorophenyl)-3-azabicyclo[3.1.0]hex-3-yl)carbonyl)-5,7-dimethylpyrazolo[1,5-a]pyrazin-4(5H)-one] | – | 65 % of control
14 | Cc1cn(C)c(=O)c2c(C(=O)N3CC4CC4(c4ccc(OC(F)(F)F)cc4)C3)cnn12 (centres unmarked) [Example 309, 5,7-dimethyl-3-((1-(4-(trifluoromethoxy)phenyl)-3-azabicyclo[3.1.0]hex-3-yl)carbonyl)pyrazolo[1,5-a]pyrazin-4(5H)-one] | – | 44 % of control
15 | Cc1cn(C)c(=O)c2c(C(=O)N3CC4CC4(c4ccc(OC(F)(F)F)cc4)C3)cnn12 (centres unmarked) [Example 310, 5,7-dimethyl-3-((1-(4-(trifluoromethoxy)phenyl)-3-azabicyclo[3.1.0]hex-3-yl)carbonyl)pyrazolo[1,5-a]pyrazin-4(5H)-one] | – | 68 % of control
16 | COc1ccccc1-n1cc(C)n2ncc(C(=O)Nc3ccc(N4CCOCC4)cc3)c2c1=O [Example 311, 5-(2-methoxyphenyl)-7-methyl-N-(4-(morpholin-4-yl)phenyl)-4-oxo-4,5-dihydropyrazolo[1,5-a]pyrazine-3-carboxamide] | 54% | –
17 | Cc1cn(C)c(=O)c2c(C(=O)N3CCC(Oc4ccc(C(F)(F)F)cc4)CC3)cnn12 [Example 313, 5,7-dimethyl-3-((4-(4-(trifluoromethyl)phenoxy)piperidin-1-yl)carbonyl)pyrazolo[1,5-a]pyrazin-4(5H)-one] | 52% | –
18 | Cc1cn(CC#N)c(=O)c2c(C(=O)N3CCC(Oc4ccc(Cl)cc4)CC3)cnn12 [Example 330, {3-[4-(4-chlorophenoxy)piperidine-1-carbonyl]-7-methyl-4-oxopyrazolo[1,5-a]pyrazin-5(4H)-yl}acetonitrile] | 68% | –
19 | Cc1cn(-c2ccccc2OCC(F)(F)F)c(=O)c2c(C(=O)Nc3ccc(N4CCOCC4)cc3)cnn12 [Example 334, 7-methyl-N-[4-(morpholin-4-yl)phenyl]-4-oxo-5-[2-(2,2,2-trifluoroethoxy)phenyl]-4,5-dihydropyrazolo[1,5-a]pyrazine-3-carboxamide] | 27% | –
20 | Cc1cn(-c2ccccc2OCC(F)(F)F)c(=O)c2c(C(=O)N3CCC(Oc4ccc(Cl)cc4)CC3)cnn12 [Example 335, 3-[4-(4-chlorophenoxy)piperidine-1-carbonyl]-7-methyl-5-[2-(2,2,2-trifluoroethoxy)phenyl]pyrazolo[1,5-a]pyrazin-4(5H)-one] | 68% | –
21 | Cc1cn(-c2ccc(F)cc2OCC(F)(F)F)c(=O)c2c(C(=O)Nc3ccc(N4CCOCC4)cc3)cnn12 [Example 336, 5-[4-fluoro-2-(2,2,2-trifluoroethoxy)phenyl]-7-methyl-N-[4-(morpholin-4-yl)phenyl]-4-oxo-4,5-dihydropyrazolo[1,5-a]pyrazine-3-carboxamide] | 42% | –
22 | Cc1cn(-c2ccccc2OCC(F)(F)F)c(=O)c2c(C(=O)Nc3ccc(OCC(F)(F)F)nc3)cnn12 [Example 337, 7-methyl-4-oxo-5-[2-(2,2,2-trifluoroethoxy)phenyl]-N-[6-(2,2,2-trifluoroethoxy)pyridin-3-yl]-4,5-dihydropyrazolo[1,5-a]pyrazine-3-carboxamide] | 37% | –
23 | Cc1cn(-c2ccccc2OCC(F)(F)F)c(=O)c2c(C(=O)Nc3ccc(OC(F)F)nc3)cnn12 [Example 338, N-[6-(difluoromethoxy)pyridin-3-yl]-7-methyl-4-oxo-5-[2-(2,2,2-trifluoroethoxy)phenyl]-4,5-dihydropyrazolo[1,5-a]pyrazine-3-carboxamide] | 40% | –
